# Laboratory results reported in ChEMBL document CHEMBL4765227, “Hit to lead optimization of a series of N-[4-(1,3-benzothiazol-2-yl)phenyl]acetamides as monoacylglycerol lipase inhibitors with potential anticancer activity” (Eur J Med Chem, 2016).
# How the values were obtained:
# Assay type in all cases: functional
# Conditions in all cases: read-out: GI
# [1] = system: M14; test: Growth inhibition of human M14 cells at 10 uM incubated for 48 hrs by sulforhodamine B assay relative to control
# [2] = system: UACC-62; test: Growth inhibition of human UACC-62 cells at 10 uM incubated for 48 hrs by sulforhodamine B assay relative to control
# [3] = system: PC-3; test: Growth inhibition of human PC-3 cells at 10 uM incubated for 48 hrs by sulforhodamine B assay relative to control
# [4] = system: SK-MEL-5; test: Growth inhibition of human SK-MEL-5 cells at 10 uM incubated for 48 hrs by sulforhodamine B assay relative to control
# [5] = system: K562; test: Growth inhibition of human K562 cells at 10 uM incubated for 48 hrs by sulforhodamine B assay relative to control
# [6] = system: COLO 205; test: Growth inhibition of human COLO 205 cells at 10 uM incubated for 48 hrs by sulforhodamine B assay relative to control
# [7] = system: MDA-MB-231; test: Growth inhibition of human MDA-MB-231 cells at 10 uM incubated for 48 hrs by sulforhodamine B assay relative to control
# [8] = system: 786-0; test: Growth inhibition of human 786-0 cells at 10 uM incubated for 48 hrs by sulforhodamine B assay relative to control
# [9] = system: RXF 393; test: Growth inhibition of human RXF 393 cells at 10 uM incubated for 48 hrs by sulforhodamine B assay relative to control
# [10] = system: NCI/ADR-RES; test: Growth inhibition of human NCI/ADR-RES cells at 10 uM incubated for 48 hrs by sulforhodamine B assay relative to control
# [11] = system: ACHN; test: Growth inhibition of human ACHN cells at 10 uM incubated for 48 hrs by sulforhodamine B assay relative to control
# [12] = system: HCT-116; test: Growth inhibition of human HCT-116 cells at 10 uM incubated for 48 hrs by sulforhodamine B assay relative to control
# [13] = system: OVCAR-3; test: Growth inhibition of human OVCAR-3 cells at 10 uM incubated for 48 hrs by sulforhodamine B assay relative to control
# [14] = system: IGROV-1; test: Growth inhibition of human IGROV-1 cells at 10 uM incubated for 48 hrs by sulforhodamine B assay relative to control
# [15] = system: A549; test: Growth inhibition of human A549/ATCC cells at 10 uM incubated for 48 hrs by sulforhodamine B assay relative to control
# [16] = system: NCI-H322M; test: Growth inhibition of human NCI-H322M cells at 10 uM incubated for 48 hrs by sulforhodamine B assay relative to control
# [17] = system: HT-29; test: Growth inhibition of human HT-29 cells at 10 uM incubated for 48 hrs by sulforhodamine B assay relative to control
# [18] = system: SK-OV-3; test: Growth inhibition of human SK-OV-3 cells at 10 uM incubated for 48 hrs by sulforhodamine B assay relative to control
# [19] = system: LOX IMVI; test: Growth inhibition of human LOX IMVI cells at 10 uM incubated for 48 hrs by sulforhodamine B assay relative to control
# [20] = system: NCI-H226; test: Growth inhibition of human NCI-H226 cells at 10 uM incubated for 48 hrs by sulforhodamine B assay relative to control
# [21] = system: SN12C; test: Growth inhibition of human SN12C cells at 10 uM incubated for 48 hrs by sulforhodamine B assay relative to control
# [22] = system: BT-549; test: Growth inhibition of human BT-549 cells at 10 uM incubated for 48 hrs by sulforhodamine B assay relative to control
# [23] = system: U-251; test: Growth inhibition of human U-251 cells at 10 uM incubated for 48 hrs by sulforhodamine B assay relative to control
# [24] = system: OVCAR-8; test: Growth inhibition of human OVCAR-8 cells at 10 uM incubated for 48 hrs by sulforhodamine B assay relative to control
# [25] = system: OVCAR-4; test: Growth inhibition of human OVCAR-4 cells at 10 uM incubated for 48 hrs by sulforhodamine B assay relative to control
# [26] = system: TK-10; test: Growth inhibition of human TK-10 cells at 10 uM incubated for 48 hrs by sulforhodamine B assay relative to control
# [27] = system: CAKI-1; test: Growth inhibition of human CAKI-1 cells at 10 uM incubated for 48 hrs by sulforhodamine B assay relative to control
# [28] = system: MOLT-4; test: Growth inhibition of human MOLT-4 cells at 10 uM incubated for 48 hrs by sulforhodamine B assay relative to control
# [29] = system: SR; test: Growth inhibition of human SR cells at 10 uM incubated for 48 hrs by sulforhodamine B assay relative to control
# [30] = system: HL-60(TB); test: Growth inhibition of human HL-60(TB) cells at 10 uM incubated for 48 hrs by sulforhodamine B assay relative to control
# [31] = system: MDA-MB-435; test: Growth inhibition of human MDA-MB-435 cells at 10 uM incubated for 48 hrs by sulforhodamine B assay relative to control
# [32] = system: UO-31; test: Growth inhibition of human UO-31 cells at 10 uM incubated for 48 hrs by sulforhodamine B assay relative to control
# [33] = system: DU-145; test: Growth inhibition of human DU-145 cells at 10 uM incubated for 48 hrs by sulforhodamine B assay relative to control
# [34] = system: SF-539; test: Growth inhibition of human SF-539 cells at 10 uM incubated for 48 hrs by sulforhodamine B assay relative to control
# [35] = system: CCRF-CEM; test: Growth inhibition of human CCRF-CEM cells at 10 uM incubated for 48 hrs by sulforhodamine B assay relative to control
# [36] = system: SF-295; test: Growth inhibition of human SF-295 cells at 10 uM incubated for 48 hrs by sulforhodamine B assay relative to control
# [37] = system: NCI-H522; test: Growth inhibition of human NCI-H522 cells at 10 uM incubated for 48 hrs by sulforhodamine B assay relative to control
# [38] = system: HOP-62; test: Growth inhibition of human HOP-62 cells at 10 uM incubated for 48 hrs by sulforhodamine B assay relative to control
# [39] = system: MCF7; test: Growth inhibition of human MCF7 cells at 10 uM incubated for 48 hrs by sulforhodamine B assay relative to control
# [40] = system: MDA-MB-468; test: Growth inhibition of human MDA-MB-468 cells at 10 uM incubated for 48 hrs by sulforhodamine B assay relative to control
# [41] = system: Hs-578T; test: Growth inhibition of human Hs-578T cells at 10 uM incubated for 48 hrs by sulforhodamine B assay relative to control
# [42] = system: NCI-H460; test: Growth inhibition of human NCI-H460 cells at 10 uM incubated for 48 hrs by sulforhodamine B assay relative to control
# [43] = system: KM12; test: Growth inhibition of human KM12 cells at 10 uM incubated for 48 hrs by sulforhodamine B assay relative to control
# [44] = system: NCI-H23; test: Growth inhibition of human NCI-H23 cells at 10 uM incubated for 48 hrs by sulforhodamine B assay relative to control
smiles,measurement,setting,value
O=C(CN1CCOCC1)Nc1ccc(-c2nc3ccccc3s2)cc1,inhibition of growth at 10 µM,[1],-1.15%
same,inhibition of growth at 10 µM,[2],-0.01%
same,inhibition of growth at 10 µM,[3],6.98%
same,inhibition of growth at 10 µM,[4],7.27%
same,inhibition of growth at 10 µM,[5],0.74%
same,inhibition of growth at 10 µM,[6],-15.3%
same,inhibition of growth at 10 µM,[7],3.16%
same,inhibition of growth at 10 µM,[8],-1.3%
same,inhibition of growth at 10 µM,[9],-11.4%
same,inhibition of growth at 10 µM,[10],-4.92%
same,inhibition of growth at 10 µM,[11],-4.03%
same,inhibition of growth at 10 µM,[12],3.9%
same,inhibition of growth at 10 µM,[13],3.74%
same,inhibition of growth at 10 µM,[14],-5.69%
same,inhibition of growth at 10 µM,[15],6.19%
same,inhibition of growth at 10 µM,[16],-0.11%
same,inhibition of growth at 10 µM,[17],-3.04%
same,inhibition of growth at 10 µM,[18],-21%
same,inhibition of growth at 10 µM,[19],0.08%
same,inhibition of growth at 10 µM,[20],4.99%
same,inhibition of growth at 10 µM,[21],-1.02%
same,inhibition of growth at 10 µM,[22],-3.57%
same,inhibition of growth at 10 µM,[23],10.5%
same,inhibition of growth at 10 µM,[24],-2.44%
same,inhibition of growth at 10 µM,[25],-0.52%
same,inhibition of growth at 10 µM,[26],-12%
same,inhibition of growth at 10 µM,[27],0.31%
same,inhibition of growth at 10 µM,[28],0.57%
same,inhibition of growth at 10 µM,[29],-2.12%
same,inhibition of growth at 10 µM,[30],-0.57%
same,inhibition of growth at 10 µM,[31],-7.79%
same,inhibition of growth at 10 µM,[32],4.97%
same,inhibition of growth at 10 µM,[33],-9.1%
same,inhibition of growth at 10 µM,[34],10.3%
same,inhibition of growth at 10 µM,[35],4.51%
same,inhibition of growth at 10 µM,[36],1.81%
same,inhibition of growth at 10 µM,[37],5.46%
same,inhibition of growth at 10 µM,[38],-6.41%
same,inhibition of growth at 10 µM,[39],51.2%
same,inhibition of growth at 10 µM,[40],107%
same,inhibition of growth at 10 µM,[41],-9.77%
same,inhibition of growth at 10 µM,[42],0.34%
same,inhibition of growth at 10 µM,[43],-6.84%
same,inhibition of growth at 10 µM,[44],4.49%
O=C(Cn1cncn1)Nc1ccc(-c2nc3ccccc3s2)cc1,inhibition of growth at 10 µM,[1],-11.2%
same,inhibition of growth at 10 µM,[2],4.77%
same,inhibition of growth at 10 µM,[3],14.2%
same,inhibition of growth at 10 µM,[4],13.3%
same,inhibition of growth at 10 µM,[5],14.2%
same,inhibition of growth at 10 µM,[6],-6.86%
same,inhibition of growth at 10 µM,[7],3.55%
same,inhibition of growth at 10 µM,[8],4.38%
same,inhibition of growth at 10 µM,[9],-25.3%
same,inhibition of growth at 10 µM,[10],-1.6%
same,inhibition of growth at 10 µM,[11],-10.5%
same,inhibition of growth at 10 µM,[12],4.58%
same,inhibition of growth at 10 µM,[13],8.95%
same,inhibition of growth at 10 µM,[14],7.64%
same,inhibition of growth at 10 µM,[15],11.9%
same,inhibition of growth at 10 µM,[16],-0.63%
same,inhibition of growth at 10 µM,[17],-4.68%
same,inhibition of growth at 10 µM,[18],0.14%
same,inhibition of growth at 10 µM,[19],0.66%
same,inhibition of growth at 10 µM,[20],25%
same,inhibition of growth at 10 µM,[21],4.85%
same,inhibition of growth at 10 µM,[22],8.47%
same,inhibition of growth at 10 µM,[23],10%
same,inhibition of growth at 10 µM,[24],5.43%
same,inhibition of growth at 10 µM,[25],19.4%
same,inhibition of growth at 10 µM,[26],-6.22%
same,inhibition of growth at 10 µM,[27],6.2%
same,inhibition of growth at 10 µM,[28],8.15%
same,inhibition of growth at 10 µM,[29],16.2%
same,inhibition of growth at 10 µM,[30],-2.11%
same,inhibition of growth at 10 µM,[31],-4.86%
same,inhibition of growth at 10 µM,[32],23.1%
same,inhibition of growth at 10 µM,[33],5.46%
same,inhibition of growth at 10 µM,[34],-7.74%
same,inhibition of growth at 10 µM,[35],-4.97%
same,inhibition of growth at 10 µM,[36],8.06%
same,inhibition of growth at 10 µM,[37],12.5%
same,inhibition of growth at 10 µM,[38],-2.28%
same,inhibition of growth at 10 µM,[39],63.9%
same,inhibition of growth at 10 µM,[40],130%
same,inhibition of growth at 10 µM,[41],-3.42%
same,inhibition of growth at 10 µM,[42],2.97%
same,inhibition of growth at 10 µM,[43],1.84%
same,inhibition of growth at 10 µM,[44],12.5%
